# According to BindingDB's records for patent US20250059196 (Shanghai Hansoh Biomedical, 2025):
# Target: T1, Mucosa-associated lymphoid tissue lymphoma translocation protein 1 (Homo sapiens, UniProt Q9UDY8)
# T1 sequence (Q9UDY8 whole entry): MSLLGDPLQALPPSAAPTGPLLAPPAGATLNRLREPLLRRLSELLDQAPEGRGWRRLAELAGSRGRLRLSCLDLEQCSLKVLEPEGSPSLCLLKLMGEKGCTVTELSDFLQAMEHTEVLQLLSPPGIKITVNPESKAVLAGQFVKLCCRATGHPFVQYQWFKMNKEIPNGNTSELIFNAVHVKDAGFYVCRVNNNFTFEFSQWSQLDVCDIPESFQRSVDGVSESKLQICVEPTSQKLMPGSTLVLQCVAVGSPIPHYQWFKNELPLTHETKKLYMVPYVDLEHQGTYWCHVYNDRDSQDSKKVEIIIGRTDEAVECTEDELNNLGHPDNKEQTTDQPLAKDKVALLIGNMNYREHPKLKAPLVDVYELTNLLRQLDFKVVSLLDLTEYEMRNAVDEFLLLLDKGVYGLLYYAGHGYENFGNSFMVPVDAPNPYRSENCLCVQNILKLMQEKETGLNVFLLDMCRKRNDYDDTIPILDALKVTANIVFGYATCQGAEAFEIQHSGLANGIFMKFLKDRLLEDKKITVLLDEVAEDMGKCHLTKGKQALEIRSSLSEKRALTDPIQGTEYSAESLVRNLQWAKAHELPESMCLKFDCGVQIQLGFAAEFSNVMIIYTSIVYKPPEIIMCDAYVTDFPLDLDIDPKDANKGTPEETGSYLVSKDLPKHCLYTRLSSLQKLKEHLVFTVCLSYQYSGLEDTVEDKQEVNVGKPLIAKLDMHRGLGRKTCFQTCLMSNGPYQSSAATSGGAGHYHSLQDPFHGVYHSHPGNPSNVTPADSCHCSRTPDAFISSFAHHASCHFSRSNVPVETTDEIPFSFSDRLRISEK
# Experiment: MALT1 Enzyme Activity Assay
# Method: The compound and the enzyme were pre-incubated at room temperature for 50 min. The substrate was then added and the reaction was carried out for 4 h.
row,SMILES,IC50
1,"O=C(Nc1cnc(N2CCC2)c(Cl)c1)c1cnn(-c2ccc3c4c(cccc24)C(=O)N3)c1C(F)(F)F [US20250059196, Example 48]",140 nM
2,"O=C(Nc1cnc(-n2cccn2)c(C(F)(F)F)c1)c1cnn(-c2ccc3c4c(cccc24)C(=O)N3)c1C(F)(F)F [US20250059196, Example 31]",40 nM
3,"O=C(Nc1cnc(-c2ncco2)c(C(F)(F)F)c1)c1cnn(-c2ccc3c4c(cccc24)C(=O)N3)c1C(F)(F)F [US20250059196, Example 34]",32 nM
4,"O=C(Nc1ccc(-n2nccn2)c(Cl)c1)c1cnn(-c2cnc3c4c(cccc24)C(=O)N3)c1C(F)(F)F [US20250059196, Example 75]",24 nM
5,"CS(C)(=O)=Nc1ncc(NC(=O)c2cnn(-c3ccc4c5c(cccc35)C(=O)N4)c2C(F)(F)F)cc1C(F)(F)F [US20250059196, Example 30]",141 nM
6,"O=C(Nc1cnc(-n2nccn2)c(C(F)(F)F)c1)c1cnn(-c2cnc3c4c(cccc24)C(=O)N3)c1C1CC1 [US20250059196, Example 78]",35 nM
7,"O=C(Nc1cnc(-n2nccn2)c(C(F)(F)F)c1)c1cnn(-c2ncc3c4c(cccc24)C(=O)N3)c1C(F)(F)F [US20250059196, Example 87]",84 nM
8,"CCc1cc(-n2ncc(C(=O)Nc3ccnc(C(F)(F)F)c3)c2C(F)(F)F)c2cccc3c2c1NC3=O [US20250059196, Example 89]",106 nM
9,"O=C(Nc1ccc(-n2cccn2)c(C(F)(F)F)c1)c1cnn(-c2ccc3c4c(cccc24)C(=O)N3)c1C(F)(F)F [US20250059196, Example 51]",47 nM
10,"O=C(Nc1cnc(-n2ccnn2)c(C(F)(F)F)c1)c1cnn(-c2ccc3c4c(cccc24)C(=O)N3)c1C(F)(F)F [US20250059196, Example 36]",53 nM
11,"O=C(Nc1ccc(C(=O)N2CCCC2)c(C(F)(F)F)c1)c1cnn(-c2ccc3c4c(cccc24)C(=O)N3)c1C(F)(F)F [US20250059196, Example 52]",104 nM

# Further compounds by falling IC50, results first:
row,IC50,SMILES
1,196 nM,"O=C(Nc1ccc(-n2cccn2)c(C(F)(F)F)c1)c1cnn(-c2cnc3c4c(cccc24)C(=O)N3)c1C(F)(F)F [US20250059196, Example 74]"
2,191 nM,"O=C(Nc1ccc(-n2nccn2)c(C(F)(F)F)c1)c1cnn(-c2cnc3c4c(cccc24)C(=O)N3)c1C(F)(F)F [US20250059196, Example 73]"
3,123 nM,"N#Cc1ccnn1-c1ncc(NC(=O)c2cnn(-c3ccc4c5c(cccc35)C(=O)N4)c2C(F)(F)F)cc1C(F)(F)F [US20250059196, Example 32]"
4,81 nM,"O=C(Nc1cnc(-n2cccn2)c(C(F)(F)F)c1)c1cnn(-c2cnc3c4c(cccc24)C(=O)N3)c1C(F)(F)F [US20250059196, Example 69]"
5,59 nM,"Cc1nc(-c2ncc(NC(=O)c3cnn(-c4ccc5c6c(cccc46)C(=O)N5)c3C(F)(F)F)cc2C(F)(F)F)oc1C [US20250059196, Example 35]"
6,46 nM,"O=C(Nc1cnc(-c2nccs2)c(C(F)(F)F)c1)c1cnn(-c2ccc3c4c(cccc24)C(=O)N3)c1C(F)(F)F [US20250059196, Example 33]"
